Consider 18 compounds from ChEMBL document CHEMBL5257018, “Novel Strategies for the Treatment of Pseudomonas aeruginosa Infections” (J Med Chem, 2016).

Experiment [1] concerns Pseudomonas aeruginosa. Put plainly: Antimicrobial activity against Pseudomonas aeruginosa PA14 assessed as reduction in bacterial growth. In kind it is functional.
Experiment [2] relates to Pseudomonas aeruginosa. Put plainly: Antimicrobial activity against Pseudomonas aeruginosa assessed as reduction in bacterial growth. Format: functional, organism-based.
Experiment [3] has as its system Pseudomonas aeruginosa. Put plainly: Inhibition of Pseudomonas aeruginosa PAO1 Pyocyanin at 250 uM relative to control.
The subject of experiment [4] is Pseudomonas aeruginosa. Put plainly: Inhibition of Pseudomonas aeruginosa PAO1 Rhamnolipid at 250 uM by spectrophotometrical analysis relative to control.
Experiment [5] has as its system Pseudomonas aeruginosa. Put plainly: Inhibition of biofilm formation in Pseudomonas aeruginosa PAO1 assessed as reduction in biofilm formation at 250 uM measured for 2 hrs by scanning confocal laser microscopic analysis. Format: functional.
In experiment [6] the target is Elastase (Pseudomonas aeruginosa (strain ATCC 15692 / PAO1 / 1C / PRS 101 / LMG12228)) (UniProt P14756). Put plainly: Inhibition of Pseudomonas aeruginosa PAO1 elastase at 250 uM relative to control.
In experiment [7] the target is T1, Elastase (Pseudomonas aeruginosa (strain ATCC 15692 / PAO1 / 1C / PRS 101 / LMG12228), UniProt P14756). Put plainly: Inhibition of Pseudomonas aeruginosa LasB elastase.
Experiment [8] addresses T1, Elastase. Put plainly: Inhibition of Pseudomonas aeruginosa LasB elastase using aminobenzoyl-Ala-Gly-Leu-Ala-p-nitro-benzyl-amide as substrate b microtiter-based fluorimetric assay.
For experiment [9], the target named is T2, Acyl-homoserine lactone acylase PvdQ (Pseudomonas aeruginosa (strain LESB58), UniProt Q9I194).
T2 sequence (Q9I194 whole entry): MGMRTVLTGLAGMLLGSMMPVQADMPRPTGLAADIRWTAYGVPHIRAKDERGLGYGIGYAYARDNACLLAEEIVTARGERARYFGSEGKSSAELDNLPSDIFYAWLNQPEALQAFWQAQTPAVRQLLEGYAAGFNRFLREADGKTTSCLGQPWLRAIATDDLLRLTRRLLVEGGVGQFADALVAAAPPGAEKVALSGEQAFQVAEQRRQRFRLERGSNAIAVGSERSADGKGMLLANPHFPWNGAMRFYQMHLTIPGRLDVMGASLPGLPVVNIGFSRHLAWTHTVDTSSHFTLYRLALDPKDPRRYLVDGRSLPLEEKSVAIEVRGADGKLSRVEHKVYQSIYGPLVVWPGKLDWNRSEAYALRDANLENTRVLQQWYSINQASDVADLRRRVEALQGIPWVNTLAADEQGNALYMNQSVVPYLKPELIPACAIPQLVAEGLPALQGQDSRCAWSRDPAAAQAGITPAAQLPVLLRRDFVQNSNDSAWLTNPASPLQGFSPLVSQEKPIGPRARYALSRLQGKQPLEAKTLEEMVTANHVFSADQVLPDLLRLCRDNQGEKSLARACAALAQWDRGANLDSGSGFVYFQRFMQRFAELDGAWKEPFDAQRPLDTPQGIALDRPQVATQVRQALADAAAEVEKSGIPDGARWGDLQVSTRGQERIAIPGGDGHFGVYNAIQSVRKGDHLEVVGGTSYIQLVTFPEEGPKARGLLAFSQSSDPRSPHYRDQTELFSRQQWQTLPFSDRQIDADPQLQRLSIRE
Put plainly: Inhibition of wild type Pseudomonas aeruginosa PAO1 pvdQ.

In experiment [10] the target is T2, Acyl-homoserine lactone acylase PvdQ. Put plainly: Competitive inhibition of Pseudomonas aeruginosa ATCC 15692 pvdQ.
For experiment [11] the target is unchanged. Put plainly: Inhibition of Pseudomonas aeruginosa ATCC 15692 pvdQ measured after 5 mins.
Experiment [12] relates to Pseudomonas aeruginosa. Put plainly: Antibacterial activity against multidrug resistant Pseudomonas aeruginosa assessed as reduction in bacterial growth. In kind it is functional.
In experiment [13] the test system is Pseudomonas aeruginosa. Put plainly: Antibiofilm activity against Pseudomonas aeruginosa PA14 assessed as inhibition of biofilm formation at 100 uM. More on the design: scale not given: the % may be the effect or the level left. Format: functional.
In experiment [14] the test system is Pseudomonas aeruginosa. Put plainly: Antibiofilm activity against Pseudomonas aeruginosa assessed as reduction in biofilm formation at 100 uM measured after 24 hrs. Format: functional. Also noted: scale not given: the % may be the effect or the level left.
Experiment [15] relates to Pseudomonas aeruginosa. Put plainly: Antibiofilm activity against Pseudomonas aeruginosa assessed as reduction in biofilm formation. In kind it is functional, organism-based.
In experiment [16] the target is T3, Hexosaminidase D (Homo sapiens, UniProt Q8WVB3).
T3 sequence (Q8WVB3 whole entry): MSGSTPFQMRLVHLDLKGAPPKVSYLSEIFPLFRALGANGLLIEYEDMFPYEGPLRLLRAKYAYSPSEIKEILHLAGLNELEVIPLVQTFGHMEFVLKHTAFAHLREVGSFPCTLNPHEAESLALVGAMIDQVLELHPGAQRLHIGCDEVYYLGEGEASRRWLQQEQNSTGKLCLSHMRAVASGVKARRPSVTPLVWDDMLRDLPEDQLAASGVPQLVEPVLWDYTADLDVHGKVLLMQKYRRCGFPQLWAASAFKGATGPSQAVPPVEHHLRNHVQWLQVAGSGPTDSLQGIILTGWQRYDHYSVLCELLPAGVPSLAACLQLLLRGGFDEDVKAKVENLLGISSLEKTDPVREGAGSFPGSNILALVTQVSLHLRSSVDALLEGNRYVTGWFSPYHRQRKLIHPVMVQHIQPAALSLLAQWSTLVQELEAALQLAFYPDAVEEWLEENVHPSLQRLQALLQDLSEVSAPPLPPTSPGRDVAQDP
Put plainly: Inhibition of human recombinant beta-hexosaminidase.

Experiment [17] is described as follows: Binding affinity to D-galactose (unknown origin) assessed as dissociation constant.
Experiment [18] concerns Pseudomonas aeruginosa. Put plainly: Antibiofilm activity against Pseudomonas aeruginosa assessed as reduction in biofilm formation at 100 uM. In kind it is functional. Also noted: scale not given: the % may be the effect or the level left.
In experiment [19] the test system is Pseudomonas aeruginosa. Put plainly: Antimicrobial activity against Pseudomonas aeruginosa infected in mouse pneumonia model administered twice a day measured after 48 hrs. Format: functional.
In experiment [20] the test system is Pseudomonas aeruginosa. Put plainly: Antibiofilm activity against Pseudomonas aeruginosa PA14 assessed as inhibition of biofilm formation. Format: functional, organism-based.
Experiment [21] relates to Pseudomonas aeruginosa. Put plainly: Antibiofilm activity against Pseudomonas aeruginosa PAO1 assessed as inhibition of biofilm formation. In kind it is functional, organism-based.
Experiment [22] is described as follows: Inhibition of elastase (unknown origin). Also noted: species or system Homo sapiens.
Experiment [23] in a line: Inhibition of Pseudomonas aeruginosa FabI.
Experiment [24] in a line: Antagonist activity at Pseudomonas aeruginosa MvfR.
Experiment [25] can be described thus: Inhibition of quorum sensing system in Pseudomonas aeruginosa PAO1 assessed as decrease in pqsR expression by PCR analysis.
Experiment [26] concerns the target T4, Transcriptional activator protein LasR (Pseudomonas aeruginosa (strain ATCC 15692 / PAO1 / 1C / PRS 101 / LMG12228)) (UniProt P25084).
T4 sequence (whole entry): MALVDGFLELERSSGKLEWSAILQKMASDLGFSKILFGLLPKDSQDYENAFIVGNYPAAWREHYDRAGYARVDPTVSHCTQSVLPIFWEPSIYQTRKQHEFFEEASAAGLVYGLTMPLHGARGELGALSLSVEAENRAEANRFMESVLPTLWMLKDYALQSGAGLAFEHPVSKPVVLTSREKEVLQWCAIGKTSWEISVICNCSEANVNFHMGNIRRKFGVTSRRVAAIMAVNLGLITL
Put plainly: Inhibition of Pseudomonas aeruginosa PAO1 LasR at 440 uM relative to control.

For experiment [27], the system named is Pseudomonas aeruginosa. Put plainly: Antibacterial activity against Pseudomonas aeruginosa PAO1 infected in Caenorhabditis elegans worms assessed as worms survival rate at 880 uM measured after 72 hrs. In kind it is functional.
Experiment [28] has as its system Pseudomonas aeruginosa. Put plainly: Inhibition of Pseudomonas aeruginosa PAO1 Pyocyanin at 440 uM relative to control.
The test system of experiment [29] is Pseudomonas aeruginosa. Put plainly: Antibacterial activity against Pseudomonas aeruginosa PAO1 infected in Caenorhabditis elegans worms assessed as worms survival at 50 uM measured after 24 hrs. In kind it is functional.
Experiment [30] relates to Pseudomonas aeruginosa. Put plainly: Inhibition of biofilm formation in Pseudomonas aeruginosa assessed as reduction in biofilm formation. In kind it is functional, organism-based.
The target of experiment [31] is T5, PA-I galactophilic lectin (Pseudomonas aeruginosa (strain ATCC 15692 / PAO1 / 1C / PRS 101 / LMG12228)) (UniProt Q05097).
T5 sequence (whole entry): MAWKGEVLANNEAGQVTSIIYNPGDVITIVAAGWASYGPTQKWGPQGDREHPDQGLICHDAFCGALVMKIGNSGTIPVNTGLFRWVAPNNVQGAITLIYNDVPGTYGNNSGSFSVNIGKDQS
Put plainly: Binding affinity to Pseudomonas aeruginosa PAO1 LecA assessed as dissociation constant.

SMILES strings stand for the structures. pIC50, pKd, pKi: −log10 of the molar value. In brackets after ≈: the same amount, converted by molar mass.

T1 sequence (P14756 whole entry): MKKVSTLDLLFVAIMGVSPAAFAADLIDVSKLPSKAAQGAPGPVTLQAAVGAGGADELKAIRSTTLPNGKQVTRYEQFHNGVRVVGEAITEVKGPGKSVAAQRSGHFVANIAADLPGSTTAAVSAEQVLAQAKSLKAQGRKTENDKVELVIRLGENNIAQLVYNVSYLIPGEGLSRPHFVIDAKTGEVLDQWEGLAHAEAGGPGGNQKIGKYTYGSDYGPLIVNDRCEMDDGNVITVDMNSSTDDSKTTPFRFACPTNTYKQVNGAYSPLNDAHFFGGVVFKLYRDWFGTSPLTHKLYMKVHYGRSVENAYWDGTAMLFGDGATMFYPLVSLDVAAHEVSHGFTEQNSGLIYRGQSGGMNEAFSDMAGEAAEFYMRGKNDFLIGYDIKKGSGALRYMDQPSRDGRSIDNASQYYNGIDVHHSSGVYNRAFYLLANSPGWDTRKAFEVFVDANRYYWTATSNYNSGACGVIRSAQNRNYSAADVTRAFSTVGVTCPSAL
Sequence of Elastase (Pseudomonas aeruginosa (strain ATCC 15692 / PAO1 / 1C / PRS 101 / LMG12228)) (P14756 198-498 limits assumed): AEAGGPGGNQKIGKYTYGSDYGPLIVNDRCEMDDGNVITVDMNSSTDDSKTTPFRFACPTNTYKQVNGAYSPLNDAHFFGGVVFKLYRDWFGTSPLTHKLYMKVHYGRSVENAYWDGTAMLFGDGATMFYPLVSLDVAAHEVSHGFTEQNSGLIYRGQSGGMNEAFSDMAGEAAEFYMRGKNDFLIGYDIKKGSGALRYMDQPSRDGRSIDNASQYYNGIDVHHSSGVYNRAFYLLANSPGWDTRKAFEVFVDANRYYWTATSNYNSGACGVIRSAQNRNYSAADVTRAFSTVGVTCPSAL

`CO[C@H](C(N)=O)[C@H](NC(=O)c1ccc(NC(=O)c2ccc([N+](=O)[O-])cc2)cc1)C(=O)Nc1ccc(C(=O)Nc2ccc(C(=O)Nc3ccc(C(=O)O)cc3OC(C)C)c(O)c2OC(C)C)cc1`: the minimum inhibitory concentration (MIC) in [1] worked out at 3.4 µg/mL (≈ 3.7 µM); in experiment [2], 1 µg/mL (≈ 1.09 µM). In the case of `CCCCCCCCCC(=O)NC1CCCC1` [N-CYCLOPENTYLDECANAMIDE], the inhibition in experiment [3] was 64%; in experiment [4], 87%; in experiment [6] it was 77%. Also, the inhibition at 250 µM in experiment [5] came to 100%. `NC(=O)[C@H](Cc1ccc(O)cc1)NC(=O)[C@H](Cc1ccccc1)NC(=O)CS` had a pIC50 in [7] of 5.22. The compound further had a pKi in experiment [8] of 7.39. `N#CC(c1ccc(F)cc1)c1cccc(C(F)(F)F)n1` (configuration not stated): the negative logarithm of the IC50 (pIC50) was 4.72 in experiment [9] and 5.72 in experiment [11]. The negative logarithm of the Ki (pKi) in experiment [10] is 9.72. For `CNc1cc(F)cc2c1[nH]c1nc(Sc3cnc(C)nc3)nc(N3C[C@H]4C[C@@H](N(C)C)[C@H]4C3)c12`, in [12], the MIC stood at 2 µg/mL (≈ 4.18 µM).

With `CCCCCCS(=O)(=O)NCCCc1c[nH]c(N)n1`, the Activity in experiment [13] amounted to 42%. As to `COc1ccc2[nH]c(SCc3ccc(C)cc3)nc2c1`, in experiment [14], the Activity was determined as 50%. In addition, the negative-log IC50 (pIC50) in [15] was 7.34. `C[C@@H](Oc1ccc(Cl)cc1Cl)C(=O)NCc1ccc2c(c1)OCO2`: in experiment [16], the pIC50 is 4.90. For `O=C[C@H](O)[C@@H](O)[C@@H](O)[C@H](O)CO` [GALACTOSE], in experiment [17], the pKd is 4.06. Regarding `O=C(Nc1ccc(Nc2ccccc2)cc1)c1ccccc1`, the Activity in experiment [18] was 22%. Moreover, the pIC50 in [15] was 4.59.

Consider `COc1ccc(-c2ccn(CC[C@](C)(C(=O)NO)S(C)(=O)=O)c(=O)c2)c(F)c1`, for which the ED50 in [19] is less than 25 mg/kg. `C/C(=C\c1ccccc1)Cn1cc(CCCCCc2c[nH]c(N)n2)nn1`: the pIC50 in experiment [20] is 6.28; in [21] it was 5.25. On to `COc1cc(/C=C2\S/C(=N\c3ccccc3)N(c3ccccc3)C2=O)cc(OC)c1O`, for which the pIC50 in [22] was 3.42. As for `Oc1cc(Cl)ccc1Oc1ccc(Cl)cc1Cl` [TRICLOSAN], the negative logarithm of the IC50 (pIC50) in experiment [23] is 6.70. Take `CCCCCCCc1[nH]c2ccc([N+](=O)[O-])cc2c(=O)c1C(N)=O`: the pIC50 in experiment [24] was 8.70; in experiment [25] it was 5.70. Regarding `O=C1CNC(=O)CN1` [DIKETOPIPERAZINE], the inhibition in [26] is 48%; in [28], 85%. In [27], the Activity turned out to be 66%. `O=C(CCCOc1ccc(Br)cc1)NC1CCSC1=O` (configuration not stated): the Activity in experiment [29] is reported as 23%. Besides, the negative-log IC50 (pIC50) in experiment [30] was 5.10. With `OC[C@H]1O[C@@H](OCc2cn([C@H]3[C@H](O)[C@@H](O)[C@H](c4cn([C@H]5[C@H](O)[C@@H](O)[C@H](n6cc([C@@H]7O[C@H](CO)[C@@H](n8cc(CO[C@@H]9O[C@H](CO)[C@H](O)[C@H](O)[C@H]9O)nn8)[C@H](O)[C@H]7O)nn6)O[C@@H]5CO)nn4)O[C@@H]3CO)nn2)[C@H](O)[C@@H](O)[C@H]1O`, in experiment [31], the K stood at 28 nM.
